Laboratory results from patent US8410139B2, “Prodrugs of a piperidinyl derivative as modulators of chemokine receptor activity” (Bristol-Myers Squibb Company, priority 2009, dated 2013).
Converted amounts (≈) assume the structure as drawn. Where two headings read alike, the source gives them in different places.

Tests used:
[1] = Thermodynamic equilibrium aqueous solubility assay; type: physicochemical; conditions: aqueous solvent, pH 6.5, aqueous buffer, thermodynamic from solid; read-out: Aq. sol., mg/mL (pH)
Method: Thermodynamic Equilibrium Aqueous Solubility Assay
The calibration standard is prepared by accurately weighing 0.5-0.7 mg of sample in 5 ml of methanol. If the material is not fully soluble in methanol, other solvents such as DMSO or mixed solvents will be used.
*The calibration standard is typically prepared fresh immediately before the start of the assay. A two-point calibration curve should be used to determine the concentration of the final solution. A serial dilution is performed on the standard solution.
The final saturated solution is prepared by adding 1.0 ml of the appropriate aqueous solvent to the remaining portion of material (˜1 mg/l ml) into a 1 dram vial. The solution is sonicated and vortexed for ˜30 seconds. The sample solution is placed on an orbiter that continually agitates the sample solutions for 15-24 hours at room temperature. The final saturated solution is then transferred to a 1.5 ml Eppendorf tube and centrifuged for ˜2 min. at 10000 rpms. The supernatant from the saturated solution is transferred to a glass HPLC vial without filtering since the 1.5 mL volume is insufficient to saturate a syringe filter. This sample preparation procedure nullifies the effects of non-specific binding to the filtering apparatus.
The standards and sample are analyzed by HPLC using either UV/Vis diode array or variable wavelength detection. Typical quantitation wavelengths are 210 or 254 nm; detection wavelength can be individually customized to optimize sensitivity. In addition to UV detection, mass spectrometry detection is recommended if available in order to confirm the identity of the HPLC-UV peak of interest.
Dilutions of aqueous test solutions are performed if HPLC-UV peak is beyond the linear portion of the standard calibration curve. Typical dilutions include 100 ul/900 ul (×10) or 500 ul/500 ul (2×), as required.
HPLC grade solvents are employed.

[2] = Solution stability assay (pH 1.0 and pH 7.4, 37° C.); type: physicochemical; conditions: conversion of the prodrug to compound 1, 37° C., read-out: Aq. Stability half-life (pH 1/7.4) Hrs (converted)
Method: Acetonitrile Stock Solution: Prepare an Acetonitrile Stock Solution of the prodrug by dissolving 1.5-2.0 mg of accurately weighted compound in 5.0 mL of acetonitrile in 5 mL volumetric flask.
(§1) pH 7.4 Buffer Working Solution: Prepare a pH 7.4 Buffer working Solution of drug by adding 1.5 mL of the Acetonitrile Stock Solution to 3.5 mL of stability buffer in a 20 mL scintillation vial, mix very well. Using a 3 mL syringe withdraw ˜3 mL of solution and filter using the Gelman 0.45 μm syringe filter into a clean 1.5 mL LC vial. This filtered solution will be used to evaluate the prodrug degradation throughout the course of the study. Target concentration: 90-120 μg/mL (70% Aqueous: 30% Acetonitrile)
as §1, with “1.0 Acidic” for “7.4 Buffer”, “pH1.0 Working” for “pH 7.4 Buffer working”
Following the sample preparation procedure described above a single sample (n=1) is prepared for each pH condition. The samples were then placed in an HPLC autosampler maintained at 37° C. and samples were analyzed over a 24 hr period. Prodrug remaining (%) is reported relative to the initial peak area (t=0 h). In cases where a conversion to parent half-life could be calculated, a t1/2 was generated. Confirmation of the conversion to parent from the prodrug was obtained by LCMS and HPLC analysis of the final timepoint samples.
Typical LC parameters are shown below:
• HPLC System: HP1100 Series, Hewlett Packard., Heated autosampler • Analytical column. Synergi 4u Hydro C18, 4.6 mm×5.0 cm, Phenomenex • Column temperature: 40° C. • Autosampler temp: 37° C. • Flow rate: 1.0 mL/min • Injection Volume: 10 μL • Mobile Phase: A: Acetonitrile • B: 0.1% Phosphoric acid in water • Run Time: 14.0 minutes • Typical LCMS parameters are shown below: • LC-MS System: Surveyor HPLC system, ThermoFinnigan LCQ Deca XP Max (Ion trap) • Analytical column. Synergi 4u Hydro C18, 4.6 mm×5.0 cm, Phenomenex • Column temperature: 40° C. • Autosampler temp: 22° C. • Flow rate: 1.0 mL/min • Injection Volume: 5 […] • Mobile Phase: A: 95% Acetonitrile/5% 20 mM Ammonium Acetate • B: 5% Acetonitrile/95% 20 mM Ammonium Acetate • LCQ Parameters • Sheath Flow Rate: 81.64 • Aux/Sweep Flow Rate: 19.01 • Current (uA): 10.89 • Voltage (kV): 5.00 • Capillary©: 348.10 • Capillary Voltage (V): 30.44

| SMILES | solubility thermodynamic [1] | half-life ([2]; pH 1) | half-life ([2]; pH 7.4) |
| --- | --- | --- | --- |
| CC(O)C(=O)OCO[C@]1(c2ccc(Cl)cc2)CCN(C(=O)[C@H](NC(=O)NCC(C)(C)O)C(C)C)CC1(C)C (stereo partly drawn) [Example 27] | 0.5 mg/mL (≈ 899 µM) | 36 h | > 22 h |
| CC(O)COC(=O)OC(C)(C)CNC(=O)N[C@@H](C(=O)N1CC[C@](O)(c2ccc(Cl)cc2)C(C)(C)C1)C(C)C (stereo partly drawn) [Example 35] | 0.18 mg/mL (≈ 324 µM) | 100 h | 30.3 h |
| CC(C)[C@@H](NC(=O)NCC(C)(C)OC(=O)OCOC(=O)/C=C/C(=O)O)C(=O)N1CC[C@](O)(c2ccc(Cl)cc2)C(C)(C)C1 [Example 6, (R,E)-3-((S)-4-(4-chlorophenyl)-4-hydroxy-3,3-dimethylpiperidine-1-carbonyl)-2,8,8-trimethyl-5,10,14-trioxo-9,11,13-trioxa-4,6-diazaheptadec-15-en-17-oic acid] | 2.2 mg/mL (≈ 3510 µM) | 61 h | 49 h |
| CC(C)[C@@H](NC(=O)NCC(C)(C)OC(=O)CCCC(=O)O)C(=O)N1CC[C@](O)(c2ccc(Cl)cc2)C(C)(C)C1 [Example 20] | 0.317 mg/mL (≈ 558 µM) | > 22 h | > 22 h |
| CC(=O)OC(C)(C)CNC(=O)N[C@@H](C(=O)N1CC[C@](O)(c2ccc(Cl)cc2)C(C)(C)C1)C(C)C [Example 4, 1-(3-((R)-1-((S)-4-(4-chlorophenyl)-4-hydroxy-3,3-dimethylpiperidin-1-yl)-3-methyl-1-oxobutan-2-yl)ureido)-2-methylpropan-2-yl acetate] | 0.03 mg/mL | 29 h | > 22 h |
| CC(C)[C@@H](NC(=O)NCC(C)(C)OC(=O)OCOC(=O)Cc1ccc(OP(=O)(O)O)cc1)C(=O)N1CC[C@](O)(c2ccc(Cl)cc2)C(C)(C)C1 [Example 9] | 1.6 mg/mL (≈ 2160 µM) | 25 h | 72 h |
| CC(C)[C@H](N)C(=O)OC(C)(C)CNC(=O)N[C@@H](C(=O)N1CC[C@](O)(c2ccc(Cl)cc2)C(C)(C)C1)C(C)C [Example 3, (S)-1-(3-((R)-1-((S)-4-(4-chlorophenyl)-4-hydroxy-3,3-dimethylpiperidin-1-yl)-3-methyl-1-oxobutan-2-yl)ureido)-2-methylpropan-2-yl 2-amino-3-methylbutanoate] | > 0.6 mg/mL | 237 h | > 22 h |
| CC(C)[C@@H](NC(=O)NCC(C)(C)OC(=O)C(N)CS(=O)(=O)O)C(=O)N1CC[C@](O)(c2ccc(Cl)cc2)C(C)(C)C1 (stereo partly drawn) [Example 32] | 1.12 mg/mL (≈ 1850 µM) | > 22 h | > 22 h |
